Reference: publication PMC7139731, “Synthesis, Anticancer Evaluation and Structure-Activity Analysis of Novel (E)- 5-(2-Arylvinyl)-1,3,4-oxadiazol-2-yl)benzenesulfonamides” (International Journal of Molecular Sciences, 2020)
Where “and” joins values, the source holds several entries; their conditions need not be identical. Identical values can stand only once.

What was measured:
[1] = test system: HCT-116 cells (colon cancer); assay: MTT cell viability assay, 72 h, HCT-116; format: cell-based, human; conditions: for IC50: MTT assay, 72 h incubation, mean ± SD
Method: (§1) Compounds 7–36 and 47–54 were tested regarding their effect on growth of three human cancer cell lines: colon cancer HCT-116, breast cancer MCF-7 and cervical cancer HeLa, as well as on noncancerous keratinocyte cell line HaCaT. Cell viability was measured with MTT assay after 72 h of incubation with tested compound in five concentration 1–100 μM. The MTT test enables us to quantify the living cells by measuring the activity of mitochondrial enzymes, enables reducing tetrazolium dye MTT to purple formazan. In this manner, IC50—molar concentration [µM] that inhibits 50% net cell growth—was determined (Table 1 and Table 2).
(§2) All chemicals, if not stated otherwise, were obtained from Sigma-Aldrich (St. Louis, MO, USA). The MCF-7, HeLa and HaCaT cell lines were purchased from Cell Lines Services (Eppelheim, Germany), the HCT-116 cell line were obtained from ATCC (ATCC-No: CCL-247). Cells were cultured in Dulbecco’s modified Eagle’s medium (DMEM) supplemented with 10% fetal bovine serum, 2 mM glutamine, 100 units/mL penicillin, and 100 μg/mL streptomycin. Cultures were maintained in a humidified atmosphere with 5% CO2 at 37 °C in an incubator (HeraCell, Heraeus, Langenselbold, Germany). Cell viability was determined using the MTT [3-(4,5-dimethylthiazol-2-yl)-2,5-diphenyl-tetrazolium bromide] assay. Stock solutions of the studied compounds were obtained in 100% DMSO. […] Cells were seeded in 96-well plates at a density of 5 × 10^3 cells/well and treated for 72 h with the examined compounds in the concentration range 1–100 μM (1, 10, 25, 50 and 100 μM). Following treatment, MTT (0.5 mg/mL) was added to the medium and cells were further incubated for 2 h at 37 °C. Cells were lysed with DMSO and the absorbance of the formazan solution was measured at 550 nm with a plate reader Victor 1420 multilabel counter, (PerkinElmer, Inc. Waltham, MA USA). […] The experiment was performed in triplicate. Values are expressed as the mean ± SD of at least three independent experiments

[2] = test system: MCF-7 cells (breast cancer); assay: MTT cell viability assay, 72 h, MCF-7; format: cell-based, human; conditions: for IC50: MTT assay, 72 h incubation, mean ± SD
Method: as §1, §2

[3] = test system: HeLa cells (cervical cancer); assay: MTT cell viability assay, 72 h, HeLa; format: cell-based, human; conditions: for IC50: MTT assay, 72 h incubation, mean ± SD
Method: as §1, §2

[4] = test system: HaCaT noncancerous keratinocyte cell line; assay: MTT cell viability assay, 72 h, HaCaT; format: cell-based; conditions: for IC50: Homo sapiens, HaCaT, MTT assay, 72 h incubation, mean ± SD; for activity against HaCaT compared with cancer lines: in words
Method: as §1, §2

Row | SMILES | IC50 ([1]; Homo sapiens, HCT-116, 72 h) [µM] | IC50 ([2]; Homo sapiens, MCF7, 72 h) [µM] | IC50 ([3]; Homo sapiens, HeLa, 72 h) [µM] | IC50 [4] [µM] | other results
1 | NS(=O)(=O)c1cc(-c2nnc(/C=C/c3ccccc3)o2)c(Cl)cc1Cl [Compound 7, (E)-2,4-Dichloro-5-(5-styryl-1,3,4-oxadiazol-2-yl)benzenesulfonamide] | 86 ± 3 | 165 ± 5 | 455 ± 14 |  | 
2 | NS(=O)(=O)c1cc(-c2nnc(/C=C/c3cccc(Cl)c3)o2)c(Cl)cc1Cl [Compound 9, (E)-2,4-Dichloro-5-(5-(3-chlorostyryl)-1,3,4-oxadiazol-2-yl)benzenesulfonamide] | 24 ± 1 | 150 ± 10 | 19 ± 1 | 98 ± 2 | 
3 | NS(=O)(=O)c1cc(-c2nnc(/C=C/c3cccc(Cl)c3)o2)c(Cl)cc1SCc1ccccc1 [Compound 10] |  |  |  |  | activity against HaCaT compared with cancer lines [4]: at the same level as against cancer lines
4 | NS(=O)(=O)c1cc(-c2nnc(/C=C/c3ccc(Cl)cc3)o2)c(Cl)cc1Cl [Compound 11, (E)-2,4-Dichloro-5-(5-(4-chlorostyryl)-1,3,4-oxadiazol-2-yl)benzenesulfonamide] | 22 ± 1 | 28 ± 1 | 42 ± 1 | 51 ± 3 | 
5 | NS(=O)(=O)c1cc(-c2nnc(/C=C/c3c(Cl)cccc3Cl)o2)c(Cl)cc1Cl [Compound 13, (E)-2,4-Dichloro-5-(5-(2,6-dichlorostyryl)-1,3,4-oxadiazol-2-yl)benzenesulfonamide] | 16 ± 1 | 92 ± 5 | 25 ± 1 | 95 ± 2 | 
6 | NS(=O)(=O)c1cc(-c2nnc(/C=C/c3ccc(Br)cc3)o2)c(Cl)cc1Cl [Compound 15, (E)-5-(5-(4-Bromostyryl)-1,3,4-oxadiazol-2-yl)-2,4-dichlorobenzenesulfonamide] | 34 ± 1 | 41 ± 1 | 34 ± 2 | 55 ± 2 | 
7 | NS(=O)(=O)c1cc(-c2nnc(/C=C/c3ccc(O)cc3)o2)c(Cl)cc1Cl [Compound 17, (E)-2,4-Dichloro-5-(5-(4-hydroxystyryl)-1,3,4-oxadiazol-2-yl)benzenesulfonamide] | 49 ± 1 | 73 ± 3 | 99 ± 1 | 100 ± 5 | 
8 | N#Cc1ccc(/C=C/c2nnc(-c3cc(S(N)(=O)=O)c(Cl)cc3Cl)o2)cc1 [Compound 19, (E)-2,4-Dichloro-5-(5-(4-cyanostyryl)-1,3,4-oxadiazol-2-yl)benzenesulfonamide] | 13.7 ± 0.5 | 10 ± 0.3 | 117 ± 6 | 102 ± 3 | 
9 | NS(=O)(=O)c1cc(-c2nnc(/C=C/c3ccncc3)o2)c(Cl)cc1Cl [Compound 23, (E)-2,4-Dichloro-5-(5-(2-(pyridin-4-yl)vinyl)-1,3,4-oxadiazol-2-yl)benzenesulfonamide] | 255 ± 13 | 640 ± 13 | 740 ± 37 |  | 
10 | NS(=O)(=O)c1cc(-c2nnc(/C=C/c3cccnc3)o2)c(Cl)cc1Cl [Compound 25, (E)-2,4-Dichloro-5-(5-(2-(pyridin-3-yl)vinyl)-1,3,4-oxadiazol-2-yl)benzenesulfonamide] | 220 ± 11 | 760 ± 24 | 570 ± 17 |  | 
11 | NS(=O)(=O)c1cc(-c2nnc(/C=C/c3ccccn3)o2)c(Cl)cc1Cl [Compound 27, (E)-2,4-Dichloro-5-(5-(2-(pyridin-2-yl)vinyl)-1,3,4-oxadiazol-2-yl)benzenesulfonamide] | 117 ± 4 | 110 ± 2 | 170 ± 5 |  | 
12 | NS(=O)(=O)c1cc(-c2nnc(/C=C/c3cccs3)o2)c(Cl)cc1Cl [Compound 29, (E)-2,4-Dichloro-5-(5-(2-(thiophen-2-yl)vinyl)-1,3,4-oxadiazol-2-yl)benzenesulfonamide] | 108 ± 4 | 175 ± 12 | 245 ± 12 |  | 
13 | NS(=O)(=O)c1cc(-c2nnc(/C=C/c3ccc([N+](=O)[O-])s3)o2)c(Cl)cc1Cl [Compound 31, (E)-2,4-Dichloro-5-(5-(2-(5-nitrothiophen-2-yl)vinyl)-1,3,4-oxadiazol-2-yl)benzenesulfonamide] | 0.5 to 4.5 |  |  | 8.1 ± 0.5 | IC50 [1]: 0.5 µM and 0.52 µM; increase of activity towards HCT-116 on addition of nitro group (31 vs 29) ([1]; compared with compound 29): over 200 times; increase of activity towards MCF-7 on addition of nitro group (31 vs 29) ([2]; compared with compound 29): 43 times; increase of activity towards HeLa on addition of nitro group (31 vs 29) ([3]; compared with compound 29): 54 times
14 | NS(=O)(=O)c1ccc(-c2nnc(/C=C/c3ccccc3)o2)cc1 [Compound 47, (E)-4-(5-Styryl-1,3,4-oxadiazol-2-yl)benzenesulfonamide] | 185 ± 11 | 168 ± 8 | 130 ± 7 |  | 
15 | NS(=O)(=O)c1ccc(-c2nnc(/C=C/c3ccc(C(F)(F)F)cc3)o2)cc1 [Compound 50, (E)-4-(5-(4-(Trifluoromethyl)styryl)-1,3,4-oxadiazol-2-yl)benzenesulfonamide] | 155 ± 7 | 280 ± 15 | 520 ± 25 |  | 
16 | Clc1ccc(-c2nnc(/C=C/c3ccccc3)o2)c(Cl)c1 [Compound 51, (E)-2-(2,4-Dichlorophenyl)-5-styryl-1,3,4-oxadiazole] | 92 ± 2 | 125 ± 6 | 190 ± 10 |  | 
17 | Clc1ccc(/C=C/c2nnc(-c3ccc(Cl)cc3Cl)o2)cc1 [Compound 52, (E)-2-(4-Chlorostyryl)-5-(2,4-dichlorophenyl)-1,3,4-oxadiazole] | 64 ± 3 | 110 ± 6 | 215 ± 6 |  | 
18 | N#Cc1ccc(/C=C/c2nnc(-c3ccc(Cl)cc3Cl)o2)cc1 [Compound 53, (E)-4-(2-(5-(2,4-Dichlorophenyl)-1,3,4-oxadiazol-2-yl)vinyl)benzonitrile] | 106 ± 3 | 142 ± 6 | 225 ± 11 |  | 

Second part, led by results:

Row | IC50 ([1]; Homo sapiens, HCT-116, 72 h) [µM] | IC50 ([2]; Homo sapiens, MCF7, 72 h) [µM] | IC50 ([3]; Homo sapiens, HeLa, 72 h) [µM] | SMILES | IC50 [4] [µM] | other results
19 | 18 ± 1 | 59 ± 3 | 18.2 ± 0.5 | NS(=O)(=O)c1cc(-c2nnc(/C=C/c3ccc(O)cc3)o2)c(Cl)cc1SCc1ccccc1 [Compound 18, (E)-2-(Benzylthio)-4-chloro-5-(5-(4-hydroxystyryl)-1,3,4-oxadiazol-2-yl)benzenesulfonamide] | 25.6 ± 0.5 | activity against HaCaT compared with cancer lines [4]: at the same level as against cancer lines
20 | 9 to 12 | 9 to 12 | 9 to 12 | N#Cc1ccc(/C=C/c2nnc(-c3cc(S(N)(=O)=O)c(SCc4ccccc4)cc3Cl)o2)cc1 [Compound 20, (E)-2-(Benzylthio)-4-chloro-5-(5-(4-cyanostyryl)-1,3,4-oxadiazol-2-yl)benzenesulfonamide] | 20 ± 1 | IC50 [1]: 10.3 ± 0.2 µM; IC50 [2]: 8.9 ± 0.5 µM; IC50 [3]: 12.2 ± 0.5 µM
21 | 18 ± 1 | 75 ± 2 | 90 ± 2 | NS(=O)(=O)c1cc(-c2nnc(/C=C/c3ccc(C(F)(F)F)cc3)o2)c(Cl)cc1Cl [Compound 21, (E)-2,4-Dichloro-5-(5-(4-(trifluoromethyl)styryl)-1,3,4-oxadiazol-2-yl)benzenesulfonamide] | 95 ± 4 | 
22 | 15.2 ± 0.1 | 30 ± 1 | 33.4 ± 0.5 | NS(=O)(=O)c1cc(-c2nnc(/C=C/c3ccc(C(F)(F)F)cc3)o2)c(Cl)cc1SCc1ccccc1 [Compound 22, (E)-2-(Benzylthio)-4-chloro-5-(5-(4-(trifluoromethyl)styryl)-1,3,4-oxadiazol-2-yl)benzenesulfonamide] | 33 ± 1 | 
23 | 31 ± 1 | 225 ± 11 | 135 ± 8 | NS(=O)(=O)c1cc(-c2nnc(/C=C/c3ccncc3)o2)c(Cl)cc1SCc1ccccc1 [Compound 24, (E)-2-(Benzylthio)-4-chloro-5-(5-(2-(pyridin-4-yl)vinyl)-1,3,4-oxadiazol-2-yl)benzenesulfonamide] | 150 ± 8 | 
24 | 85 ± 5 | 350 ± 17 | 135 ± 4 | NS(=O)(=O)c1cc(-c2nnc(/C=C/c3cccnc3)o2)c(Cl)cc1SCc1ccccc1 [Compound 26, (E)-2-(Benzylthio)-4-chloro-5-(5-(2-(pyridin-3-yl)vinyl)-1,3,4-oxadiazol-2-yl)benzenesulfonamide] |  | 
25 | 32 ± 2 | 66 ± 2 | 87 ± 3 | NS(=O)(=O)c1cc(-c2nnc(/C=C/c3cccs3)o2)c(Cl)cc1SCc1ccccc1 [Compound 30, (E)-2-(Benzylthio)-4-chloro-5-(5-(2-(thiophen-2-yl)vinyl)-1,3,4-oxadiazol-2-yl)benzenesulfonamide] | 85 ± 4 | 
26 | 98 ± 1 | 102 ± 5 | 104 ± 3 | FC(F)(F)c1ccc(/C=C/c2nnc(-c3ccc(Cl)cc3Cl)o2)cc1 [Compound 54, (E)-2-(2,4-Dichlorophenyl)-5-(4-(trifluoromethyl)styryl)-1,3,4-oxadiazole] |  | 
